# Experimental data from patent US8748339B2, “Synergistic fungicidal mixtures” (priority 2008, dated 2014).
# Where two headings read alike, the source gives them in different places.
# Tests used:
# Format in all cases: cell-based
# Pyrenophora teres = assay: Activity against Pyrenophora teres in the microtiter test (Pyrnte); conditions: single active compound, day 7 after inoculation
# Phytophthora infestans = conditions: single active compound, 7 days after inoculation
# Septoria tritici = assay: Activity against leaf blotch on wheat caused by Septoria tritici in the microtiter test (Septtr); conditions: single active compound, day 7 after inoculation
# Fusarium culmorum = assay: Activity against Fusarium culmorum in the microtiter test (Fusacu); conditions: single active compound, day 7 after inoculation
molecule,measurement,setting,value
"COC=C(C(=O)OC)c1ccccc1COc1cccc(C(F)(F)F)n1 [Picoxystrobin, methyl 3-methoxy-2-[2-(6-trifluoromethylpyridin-2-yloxymethyl)phenyl]-acrylate]",Observed efficacy [%],Pyrenophora teres; 0.016 ppm,31%
zinc propylenebis(dithiocarbamate) polymer [Propineb],Observed efficacy [%],Phytophthora infestans; 1 ppm,21%
"C=CCSC(=O)n1c(N)c(-c2ccccc2C)c(=O)n1C(C)C [I.1, 5-amino-2-isopropyl-3-oxo-4-o-tolyl-2,3-dihydro-pyrazole-1-carbothioic acid ally ester]",Observed efficacy [%],Phytophthora infestans; 16 ppm,16%
same,Observed efficacy [%],Phytophthora infestans; 63 ppm,37%
same,Observed efficacy [%],Septoria tritici; 4 ppm,37%
same,Observed efficacy [%],Pyrenophora teres; 1 ppm,34%
same,Observed efficacy [%],Fusarium culmorum; 63 ppm,14%
"Cc1cc(C2CC2)nc(Nc2ccccc2)n1 [Cyprodinil, (4-cyclopropyl-6-methylpyrimidin-2-yl)phenylamine]",Observed efficacy [%],Septoria tritici; 1 ppm,13%
"COC(=O)N(OC)c1ccccc1COc1ccn(-c2ccc(Cl)cc2)n1 [Pyraclostrobin, methyl N-{2-[1-(4-chlorophenyl)-1H-pyrazol-3-yloxymethyl]phenyl}(N-methoxy)carbamate]",Observed efficacy [%],Fusarium culmorum; 0.25 ppm,5%
CCO[PH](=O)O [Fosetyl-Al],Observed efficacy [%],Phytophthora infestans; 16 ppm,35%
"N#Cc1c(Cl)c(Cl)c(Cl)c(C#N)c1Cl [Chlorothalonil, 2,4,5,6-tetrachloroisophthalonitrile]",Observed efficacy [%],Septoria tritici; 0.25 ppm,46%
